PMC7136958, “Targeting the pregnane X receptor using microbial metabolite mimicry” (EMBO Molecular Medicine, 2020)
“And” between values parts separate entries of the source, which are not always exact repeats. Equal entries are not always repeated.

What was measured:
IL-8 mRNA in HIOs = test: IL-8 mRNA in iPSC-derived human intestinal organoids exposed to cytokine cocktail; assay type: cell-based; set-up: key to IL8 mRNA: relative IL-8 mRNA level, normalized to GAPDH; details: for basal IL-8 expression: 10 and 25 μM; for IL-8 mRNA expression in presence of cytokines: 12 h of exposure; for IL8 mRNA: HIO, triplicate
Description: Caco‐2 cell (ATCC, Manassas, VA) passages 25–35 were maintained and expanded in culture flasks in Dulbecco's modified Eagle's medium (DMEM) with 10% FBS and 1× antibiotic–antimycotic. The cells were kept in a humidified 37°C incubator with 5% CO2. Media were changed every 2–3 days, and cells were passaged 1–2 times a week. For all experiments, Caco‐2 cells (5 × 10^4 cells/ml) were seeded into 12‐well Transwell inserts or coverslips and cultured for 3 weeks. HIOs were generated from iPSCs as described previously (Spence et al, 2011), with some modifications. The iPSC cell line IISH1i‐BM1 (WiCell, Madison, WI) was cultured on Matrigel plates to 80% confluence in mTeSR™ 1 medium (Stem Cell Technologies, Seattle, WA) and differentiated to endoderm using Definitive Endoderm Kit (Stem Cell Technologies., Seattle, WA) for 4 days with daily media changes. Endoderm was then differentiated to hindgut for 5 days with the addition of FGF‐4 (500 ng/ml; Peprotech, Rocky Hill, NJ) and Chir99021 (3 μM; Cayman, Ann Arbor, MI) in RPMI media supplemented with 2% FBS. Floating hindgut spheroids were collected on days 3–5 of hindgut differentiation and suspended in Matrigel beads for HIO differentiation. HIOs were maintained in WENRAS media (Fujii et al, 2015), which maintains proliferation in the culture. Stock HIOs were passaged weekly by removing Matrigel with Cell Recovery Solution (Corning, NY) and mechanically breaking up organoids with pipetting. HIOs were seeded into new Matrigel beads at a 1:3 split, using WENRAS with added Rock Inhibitor Y‐27632 (10 μM) and Chir99021 (3 μM; Cayman., Ann Arbor, MI) for the first 2 days of culture.
HIOs and Caco‐2 were exposed to a pro‐inflammatory cytokine cocktail (10 ng/ml IFN‐γ, 10 ng/ml TNF‐α, 50 ng/ml IL‐1β) for 2–24 h in combination with DMSO or FKK5 and FKK6 compounds (10 and 25 μm). Relative mRNA levels of IL‐8 and IL‐6 were determined using quantitative real‐time PCR, with normalization to GAPDH. RNA was isolated using an RNeasy Mini Kit (Qiagen) as per the manufacturer's instructions. On column DNase (Qiagen) was used to remove any contaminating DNA. Next, cDNA was formed using iScript cDNA Synthesis Kit (Bio‐Rad) and 100 ng RNA. qRT–PCR was performed with SsoAdvanced Universal SYBR Green Kit (Bio‐Rad). The following primers were used: IL‐8 Forward: […]; IL‐8 Reverse: […]; IL‐6 Forward: […]; IL‐6 Reverse: […]; GAPDH Forward: […]; GAPDH Reverse: […]. For immunofluorescent staining of NF‐ĸB translocation to the cell nucleus, HIOs and Caco‐2 cell monolayers were fixed in 4% formaldehyde (in 1 × PBS) overnight at 4°C. The formaldehyde was removed by washing with 1 × PBS, and an antigen retrieval step was performed by incubating in 10 mM sodium citrate buffer in a vegetable steamer for 20 min. The samples were then blocked with normal donkey serum (10% in PBS with 0.3% Triton X‐100) for 1 h. Samples were incubated overnight with primary antibodies: rabbit anti‐NF‐κB p65 (D14E12 # 8242, 1:400 dilution, Cell Signaling Technology, Danvers MA), then immersed in Alexa Fluor® 555 donkey anti‐rabbit secondary antibody (A‐31572, Life Technologies) at a 1:500 dilution. Nuclei were stained with Hoechst 33342 (Life Technologies). The samples were then imaged using a Zeiss LSM880 Confocal/Multiphoton Upright Microscope, with 3‐D image rendering using Volocity. For controls, normal rabbit IgG (#2729S, Life Technologies) was used.

S. typhimurium 14038 = test: Salmonella invasion in iPSC-derived human intestinal organoids; assay type: cell-based, Salmonella typhimurium; details: for salmonella invasion vs cytokines alone: 2, 4, 6, 12 h; for basal salmonella invasion: 10 and 25 μM; for Salmonella CFU/ml: HIO, triplicate
Description: FKK compounds were tested for their ability to prevent Salmonella invasion in vitro in non‐inflamed and inflamed cell cultures. Overnight cultures of S. typhimurium 14038 were diluted to OD600 0.01 and injected into with HIOs or immersed over Caco‐2 monolayers for 1 h at 37°C. The invasive ability of Salmonella was assessed using the gentamicin protection assay (Gagnon et al, 2013). Bacterial adhesion scenarios to the Caco‐2 surface were set up as described above. Non‐adhered bacteria were removed by washing twice in PBS, followed by incubation with 1 ml gentamicin (150 μg/ml in DMEM) for 1 h at 37°C to kill the adhered extracellular bacteria. Dead bacteria were removed by washing twice in PBS, followed by incubation with 500 μl 0.1% Triton X‐100 for 15 min at 37°C to lyse the HIOs and Caco‐2, and release the intracellular (invaded) bacteria. Serial fold dilutions and plating were then employed to determine CFU/ml. We normalized to total protein using Bradford assay.

[1] = system: CYP1A1, CYP3A4, MDR1 mRNA in LS180 cells; test: qRT-PCR of CYP1A1, CYP3A4, MDR1 mRNA in LS180 cells with or without (mock) transfected PXR; details: for CYP1A1 mRNA induction: LS180 cells; for CYP1A1 mRNA fold to C / CYP3A4 mRNA fold to C / MDR-1 mRNA fold to C / MDR1 mRNA fold to C: normalised to GAPDH, fold to UT control
Description: Cells or primary human hepatocytes from four different donors (HEP200529, HEP220932, HEP200533, and HEP200538) were incubated for 24 h with test compounds; the vehicle was DMSO (0.1% v/v). Total RNA was isolated using TRI Reagent® (Molecular Research Center, Ohio, USA). cDNA was synthesized from 1,000 ng of total RNA using M‐MuLV Reverse Transcriptase (New England Biolabs, Ipswich, Massachusetts, USA) at 42°C for 60 min in the presence of random hexamers (New England Biolabs). Quantitative reverse transcriptase–polymerase chain reaction (qRT–PCR) was performed using LightCycler® 480 Probes Master on a LightCycler® 480 II apparatus (Roche Diagnostic Corporation).
The following protocol was used: An activation step at 95°C for 10 min was followed by 45 cycles of PCR (denaturation at 95°C for 10 s; annealing with elongation at 60°C for 30 s). The measurements were performed in triplicate. Gene expression was normalized per GAPDH as a housekeeping gene. […] Data are expressed as fold induction ± SD over the vehicle‐treated cells. The bar graph depicts one representative experiment of a series of experiments performed in three consecutive passages of cells. Differences were tested using one‐way ANOVA with Dunnett's post hoc test, and P < 0.05 was considered significant.

[2] = compound 10µm, no cytokines, 2 hr
[3] = cytokines + compound 10µm, 2 hr
[4] = cytokines + compound 10µm, 12 hr
[5] = cytokines + compound 25µm, 2 hr
[6] = cytokines + compound 25µm, 12 hr
[7] = compound 10µm, no cytokines, 4 hr

Structure (SMILES)	basal IL-8 expression (IL-8 mRNA in HIOs)	IL-8 mRNA expression in presence of cytokines (IL-8 mRNA in HIOs)	IL8 mRNA (IL-8 mRNA in HIOs; [2])	IL8 mRNA (IL-8 mRNA in HIOs; [3])	IL8 mRNA (IL-8 mRNA in HIOs; [5])	salmonella invasion vs cytokines alone (S. typhimurium 14038)	basal salmonella invasion (S. typhimurium 14038)	Salmonella CFU/ml (S. typhimurium 14038; [7])	Salmonella CFU/ml (S. typhimurium 14038; [4])	CYP1A1 mRNA induction [1]	CYP1A1 mRNA fold to C ([1]; PXR-transfected LS180 cells)	CYP3A4 mRNA fold to C ([1]; PXR-transfected LS180 cells)	MDR-1 mRNA fold to C ([1]; PXR-transfected LS180 cells)	CYP1A1 mRNA fold to C ([1]; mock-transfected LS180 cells)	CYP3A4 mRNA fold to C ([1]; mock-transfected LS180 cells)	MDR1 mRNA fold to C ([1]; mock-transfected LS180 cells)	other results
O=C(c1ccncc1)c1cc2ccccc2n1S(=O)(=O)c1ccccc1 [FKK5, (1-(phenylsulfonyl)-1H-indol-2-yl)(pyridin-4-yl)methanone]	no significant effect	significantly reduced	18.0113 and 18.2375 and 29.1251	84.3969 and 82.9774 and 82.3934	91.455 and 107.347 and 106.247	significantly reduced	no significant effect	557 CFU/ml and 514 CFU/ml and 578 CFU/ml	459 CFU/ml and 469 CFU/ml and 548 CFU/ml	did not induce	1.86	3.69	4.10	8.19	0.94	3.80	IL8 mRNA (IL-8 mRNA in HIOs; compound 25µm, no cytokines, 2 hr): 28.3595 and 38.1574 and 25.5014; IL8 mRNA (IL-8 mRNA in HIOs; [4]): 1568.63 and 1202.46 and 1346.22; IL8 mRNA (IL-8 mRNA in HIOs; [6]): 1661.53 and 1048.7 and 891.557; Salmonella CFU/ml (S. typhimurium 14038; compound 10µm, no cytokines, 12 hr): 447 CFU/ml and 508 CFU/ml and 480 CFU/ml; Salmonella CFU/ml (S. typhimurium 14038; [6]): 474 CFU/ml and 339 CFU/ml and 439 CFU/ml
C#CCC(O)(c1ccncc1)c1cc2ccccc2n1S(=O)(=O)c1ccccc1 (centres unmarked) [FKK6]	no significant effect	significantly reduced	17.457 and 16.5395 and 13.4302	87.755 and 95.5702 and 80.4889	19.632 and 32.9894 and 27.3407	significantly reduced	no significant effect	370 CFU/ml and 296 CFU/ml and 591 CFU/ml	362 CFU/ml and 381 CFU/ml and 340 CFU/ml	did not induce	2.02	18.02	10.37	4.61	1.10	5.17	Salmonella CFU/ml (S. typhimurium 14038; compound 25µm, no cytokines, 6 hr): 277 CFU/ml and 280 CFU/ml and 238 CFU/ml; Salmonella CFU/ml (S. typhimurium 14038; [3]): 234 CFU/ml and 133 CFU/ml and 134 CFU/ml; Salmonella CFU/ml (S. typhimurium 14038; [5]): 193 CFU/ml and 132 CFU/ml and 164 CFU/ml; Salmonella CFU/ml (S. typhimurium 14038; cytokines + compound 25µm, 4 hr): 200 CFU/ml and 140 CFU/ml and 164 CFU/ml; Salmonella CFU/ml (S. typhimurium 14038; cytokines + compound 25µm, 6 hr): 189 CFU/ml and 151 CFU/ml and 140 CFU/ml; CYP3A4 mRNA induction ([1]; PXR-transfected LS180 cells): induced; MDR1 mRNA induction ([1]; PXR-transfected LS180 cells): induced
